We go through 81 compounds from the METLIN SMRT retention time set (Domingo-Almenara et al. 2019).

The data set in a line: gradient 5% acetonitrile 3 min, to 50% in 2 min, to 85% in 15 min, held 3 min, 100 µL/min. The following applies: column: Zorbax Extend-C18 2.1 x 50 mm; eluents: water / acetonitrile, 0.1% formic acid. The method, boiled down:
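Data were gathered over 3 months by HPLC coupled to a quadrupole time-of-flight mass spectrometer, operated in positive and negative ionization mode. Mixtures of ~100 pure standards ran on a Zorbax Extend-C18 column (2.1 × 50 mm, 1.8 μm) at 100 μL/min, with water and acetonitrile each containing 0.1% formic acid and dead and dwell volumes of 40 μL and 900 μL. Retention time was read from adduct peaks picked by computer and checked manually.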
In the case of `Cn1nnc2ccc(-c3noc(-c4ccccc4F)n3)cc21`, the RP-LC retention time amounted to 876 s.

In the case of `COc1ccc(N2C(=O)CSC2c2ccc(Cl)cc2)cc1` (stereo unspecified), the RP-LC retention time was determined as 877 s.

With `COCCCn1cc(C(=O)Nc2cccc(C)n2)c2nn(-c3ccccc3)c(=O)c-2c1`, the RP-LC retention time is 864 s.

`CC(C)c1ccc(N2CC(c3nc(-c4ccc5c(c4)OCO5)no3)CC2=O)cc1` (stereo unspecified): the RP-LC retention time was 1100 s.

The compound `COc1ccc2c(c1)C1(CCN(S(=O)(=O)c3ccc(Cl)cc3)C1)C(=O)N2` (stereo unspecified) gave an RP-LC retention time of 894 s.

`C=CCn1c(=O)c2ccc(C(=O)NCC(C)C)cc2n2c(=O)n(CC(N)=O)nc12` displayed an RP-LC retention time of 643 s.

For the compound `COc1cc(C)c(C)cc1S(=O)(=O)NCC1CCN(c2ncccn2)CC1`, the RP-LC retention time came out at 806 s.

With `O=C(NC1CC1)C1CCN(c2nc3ccc(-c4cccnc4)nc3s2)CC1`, the RP-LC retention time turned out to be 598 s.

In turn, `COc1cn(CC(=O)Nc2cc(C)on2)c(CN2CCCCC2)cc1=O` displayed an RP-LC retention time of 566 s.

On to `Cc1ccc(-n2nc(C)c(S(=O)(=O)Nc3ccc(S(N)(=O)=O)cc3)c2C)cc1`, for which the RP-LC retention time was found to be 765 s.

On to `Cc1cc2nc(SCc3noc(CCC(=O)Nc4nc(-c5ccccc5)cs4)n3)[nH]c2cc1C`, for which the RP-LC retention time was determined as 814 s.

The compound `O=C(COc1cccc(Cl)c1)N1CCN(c2nc(CN3CCOCC3)cs2)CC1` yielded an RP-LC retention time of 721 s.

In the case of `Cc1nnsc1C(=O)NCC(F)(F)F`, the RP-LC retention time turned out to be 649 s.

In turn, `O=C(NCCCN1CCOCC1)C1CCCN(c2ccc(=O)n(-c3cccc(Cl)c3)n2)C1` (stereo unspecified) returned an RP-LC retention time of 610 s.

In turn, `CCCN1CCCCc2cc(C(=O)NC(C)COC)sc21` (stereo unspecified) returned an RP-LC retention time of 907 s.

With `C#CC(C)(CC)OCC(O)CN1C(C)(C)CC(O)CC1(C)C` (stereo unspecified), the RP-LC retention time amounted to 568 s.

Compound `Cc1ccccc1Nc1c(-c2c(F)cccc2Cl)nc2c(C)cccn12` registered an RP-LC retention time of 774 s.

`CCOC(=O)C(C)(C)Sc1nnc(NC(=O)C2CCN(S(C)(=O)=O)CC2)s1`: the RP-LC retention time turned out to be 721 s.

The compound `Cn1c(=O)n(C)c2cc(N3CCCCC3)c(NC(=O)COc3ccc(Cl)cc3)cc21` yielded an RP-LC retention time of 1040 s.

Regarding `Cc1cc(C(=O)N2CC(Oc3ccc(-c4nc(-c5ccccc5)no4)cc3)C2)n(C)n1`, the RP-LC retention time came out at 1060 s.

For the compound `CC(NC(=O)Cn1cnc(-c2noc(-c3ccncc3)n2)c1)c1ccccc1` (stereo unspecified), the RP-LC retention time stood at 678 s.

`Cc1ccccc1Nc1c(-c2ccc(N3CCOCC3)cc2)nc2ccc(Cl)cn12` came in with an RP-LC retention time of 805 s.

In turn, `Cc1ccc(Nc2c(-c3ccc(N(C)C)cc3)nc3cc(C)ccn23)cc1` returned an RP-LC retention time of 828 s.

As to `COc1ccc(-c2cc3n(n2)CCCN(C(=O)c2ccco2)C3)cc1`, the RP-LC retention time was 758 s.

Take `COc1ccc(CC(=O)NC(C(=O)Nc2nc3ccccc3[nH]2)C(C)C)cc1Cl` (stereo unspecified): the RP-LC retention time was 733 s.

With `COc1ccc(Cc2nnc3sc(-c4ccc(N(C)C)cc4)nn23)cc1`, the RP-LC retention time stood at 1090 s.

For `O=C(CCc1c[nH]c2ccccc12)Nc1ccc(-c2nnc3n2CCCC3)cc1`, the RP-LC retention time was determined as 704 s.

In turn, `Cc1cc2[nH]c(C(=O)Nc3cccc(Cl)c3C)c(CN3CCOCC3)c2s1` displayed an RP-LC retention time of 748 s.

`CN1C(=O)c2cccn2CC1C(=O)NCc1nc2ccccc2n1C` (stereo unspecified) registered an RP-LC retention time of 566 s.

Compound `CCn1c(=O)c(NCCc2ccc(Cl)cc2)nc2ccncc21` gave an RP-LC retention time of 596 s.

Regarding `O=C(Nc1ccc(-c2nc3ccccc3s2)cc1)c1cc(=O)c2ccccc2o1`, the RP-LC retention time is 1030 s.

`CCc1nc2cccnc2n1CCN1CCN(C(=O)Nc2ccc(C)c(Cl)c2)CC1`: the RP-LC retention time worked out at 742 s.

In turn, `CCOc1ccc(CN(C(=O)Cc2coc3ccc(CC)cc23)C2CCS(=O)(=O)C2)cc1` (stereo unspecified) came in with an RP-LC retention time of 1050 s.

For the compound `CCN(CC)CCCNC(=O)C1CCCN(c2nnc(C)c3c(C)n(-c4ccc(Cl)cc4)nc23)C1` (stereo unspecified), the RP-LC retention time worked out at 598 s.

`Brc1cccc(-c2noc(-c3nc(-c4ccncc4)no3)n2)c1` came in with an RP-LC retention time of 1150 s.

In turn, `O=C(c1ccc(F)c(F)c1)N1CCCN(c2cc(-c3ccc4c(c3)OCO4)[nH]n2)CC1` yielded an RP-LC retention time of 703 s.

On to `CCCCNC(=O)Nc1ccccc1CC`, for which the RP-LC retention time turned out to be 870 s.

In turn, `O=C(c1cn(-c2cc(-c3nc(C4CC4)no3)ccn2)cn1)N1CCSCC1` showed an RP-LC retention time of 833 s.

In turn, `CCCN(C)c1nccn2c(=O)n(CC(=O)Nc3ccc(Br)cc3)nc12` had an RP-LC retention time of 736 s.

Compound `COC(=O)c1cccc(C(=O)N2CCN(c3cc(C)ccc3C)CC2)n1` came in with an RP-LC retention time of 959 s.

Turning to `Cc1ccc(Cl)cc1-n1ccnc(NC(=O)Nc2ccccc2)c1=O`, the RP-LC retention time is 1020 s.

Compound `O=C(Cc1nnc(-c2cnccn2)o1)Nc1ccc(C(F)(F)F)cc1` yielded an RP-LC retention time of 766 s.

For `COc1ccccc1NC(=O)N1CCN(c2cc(C)nc(N3CCCCC3)n2)CC1`, the RP-LC retention time amounted to 695 s.

For `CC(C)Oc1ccc(CNC(=O)C2CCN(c3nnc4ccccn34)CC2)cc1`, the RP-LC retention time was 685 s.

For `O=C(O)c1cnc(NCCc2cccs2)nc1-c1ccccn1`, the RP-LC retention time was 765 s.

`Nc1nnc(SCC(=O)Nc2nc(-c3ccccc3)cs2)s1`: the RP-LC retention time is 751 s.

`CCc1ccc(NC(=O)CCc2c(C)n(C)c3nc(-c4ccccc4)nn3c2=O)cc1` came in with an RP-LC retention time of 893 s.

The compound `COc1ccc(-c2noc(-c3ccc(N4CCN(C5CCCCC5)CC4)nc3)n2)cc1` showed an RP-LC retention time of 778 s.

Compound `CCc1cccc(CC)c1NC(=O)N1Cc2[nH]nc(NC(=O)c3ccc(N4CCN(C)CC4)cc3)c2C1` displayed an RP-LC retention time of 664 s.

On to `Brc1ccc(-c2noc(Cc3nnc(-c4ccccc4)o3)n2)cc1`, for which the RP-LC retention time was 1110 s.

`Cc1cc(C(=O)O)c2c(C)nn(-c3cccc(F)c3)c2n1` returned an RP-LC retention time of 954 s.

For the compound `CS(=O)(=O)N(C1CCOCC1)C1CN(C(=O)Nc2ccccc2F)C1`, the RP-LC retention time was 670 s.

`CC(C)n1cnc2cc(CNC(=O)C3CCCC3)ccc21` had an RP-LC retention time of 595 s.

In turn, `Cc1ccc(-c2cc3c4nnc(SCC(=O)NCCc5ccccc5)n4ccn3n2)cc1C` came in with an RP-LC retention time of 954 s.

Regarding `CCOc1cccc(CN2C[C@@H]3C(=O)N(CCN4CCc5ccccc5C4)C(=O)[C@@H]3C2)c1`, the RP-LC retention time turned out to be 622 s.

`COC(=O)c1sc2ccccc2c1NC(=O)c1ccc([N+](=O)[O-])o1`: the RP-LC retention time amounted to 871 s.

For the compound `CC(C)[C@@H]1CC[C@@H](C)C[C@@H]1P(=O)(c1ccccc1)c1ccccc1`, the RP-LC retention time was found to be 1290 s.

Compound `Cc1cc(CNC(=O)C2CCCC2)c(C)o1` showed an RP-LC retention time of 762 s.

With `COc1cc(C(=O)NCC(c2ccc3c(c2)OCO3)N2CCN(C)CC2)cc(OC)c1OC` (stereo unspecified), the RP-LC retention time came to 610 s.

Regarding `CC(C)N1CCN(C(=O)c2ccc(-c3cccs3)nc2)CC1`, the RP-LC retention time amounted to 588 s.

Compound `Cc1oc(-c2ccc(Cl)cc2)nc1COc1cc(C)c2c(C)nn(C)c2n1` yielded an RP-LC retention time of 1280 s.

Turning to `Cc1sc2ccn(C)c(=O)c2c1C(=O)NCc1cccc(Cl)c1`, the RP-LC retention time is 817 s.

In turn, `COc1ccc(OC)c(NC(=O)NC2CCN(c3ccc(F)cc3)C2=O)c1` (stereo unspecified) returned an RP-LC retention time of 716 s.

In the case of `CCOC(=O)c1c(C)c(CCC(=O)NCCN2CCCCC2)n(C)c1C`, the RP-LC retention time stood at 624 s.

`O=C(CCn1cccn1)N1CCCn2ccnc2C1C1CCCC1` (stereo unspecified) came in with an RP-LC retention time of 582 s.

The compound `Cc1cccnc1NC(=O)C1CCN(S(=O)(=O)c2ccc3c(c2)sc(=O)n3C(C)C)CC1` returned an RP-LC retention time of 844 s.

Regarding `Fc1cccc(-c2nnc3sc(-c4ccc5ccccc5n4)nn23)c1`, the RP-LC retention time was found to be 1180 s.

`CCCn1c(=O)sc2cc(S(=O)(=O)N3CCC(C(=O)NCc4cccnc4)CC3)ccc21` came in with an RP-LC retention time of 643 s.

In turn, `CCn1cc(S(=O)(=O)Nc2cc(C)ccc2F)c2cccnc21` displayed an RP-LC retention time of 846 s.

In turn, `O=C(Nc1cc(C(F)(F)F)ccc1Cl)c1ccc2ncsc2c1` gave an RP-LC retention time of 922 s.

In turn, `CC1CN(C(=O)NCC2CCCO2)c2ccccc2O1` (stereo unspecified) returned an RP-LC retention time of 754 s.

`CCc1ccc(C2=C(C)C(N3CCCN(C(=O)C4CCC4)CC3)=NS2(=O)=O)cc1` returned an RP-LC retention time of 875 s.

With `CCOC(=O)c1nc(Nc2ccc(C(=O)OC)cc2)c2ccccc2n1`, the RP-LC retention time came out at 841 s.

`CCOC(=O)c1nc(NCc2ccccc2Cl)c2c(CC)noc2n1` registered an RP-LC retention time of 1010 s.

For the compound `COCCN1C(=O)CCc2cc(NS(=O)(=O)c3cc(C)cc(C)c3)ccc21`, the RP-LC retention time stood at 816 s.

The compound `CC1(C(=O)NCc2ccc(Br)cc2)Oc2cccnc2NC1=O` (stereo unspecified) returned an RP-LC retention time of 733 s.

Regarding `Cc1c(CN2CC3(CCCCC3)CC2COc2ccncc2)cnn1C` (stereo unspecified), the RP-LC retention time is 565 s.

`Cc1ccc(-c2coc(-c3ccc(NC(=O)CC(C)C)cc3)n2)c(C)c1` gave an RP-LC retention time of 1240 s.

`Cc1ccc2cc(CCC(=O)NCCCN3CCOCC3)c(=O)[nH]c2c1` returned an RP-LC retention time of 577 s.

`Cc1cccc(N2CCN(C(=O)C3CCN(c4cnc5nccnc5c4)CC3)CC2)c1C`: the RP-LC retention time is 881 s.

Regarding `Cc1ccc(S(=O)(=O)NCCCC(=O)NCc2ccccc2)cc1`, the RP-LC retention time came to 732 s.
